Data as given in US8394762B2, “Self-decontaminating coatings containing antimicrobial peptides” (The United States of America, as represented by the …, priority 2010, dated 2013).

Key:
[1] = test system: eukaryotic cells; details: literature; cited from earlier work
[2] = test system: Gram-positive and Gram-negative bacteria; details: both Gram-positive and Gram-negative bacteria; Iijima et al. 2003; cited from earlier work
[3] = test system: Staphylococcus aureus (ATCC 25923); assay: Surface testing (log kill) of peptide-containing acrylic coatings, Gram-positive; type: cell-based; details: for Surface antimicrobial activity of coating (in words), Gram-positive / Gram Positive Sample 1 Log Kill / Gram Positive Sample 2 Log Kill / Gram Positive Sample 3 Log Kill / Gram Positive Average Log Kill: 1% (w/w) peptide in acrylic coating; for Gram Positive Sample 1 Log Kill / Gram Positive Sample 2 Log Kill / Gram Positive Sample 3 Log Kill / Gram Positive Average Log Kill: 2 hr contact; for Gram Positive Sample 1 Log Kill / Gram Positive Sample 2 Log Kill / Gram Positive Sample 3 Log Kill: 1×10^5 bacteria; for Gram Positive Average Log Kill: average of triplicate
Description: (§1) Bacteria and media: Bacterial strains were obtained from the American Type Culture Collection (ATCC, Manassas, Va.) Staphylococcus aureus (ATCC 25923) and Escherichia coli (ATCC 11229) were used for bacterial Gram-positive and Gram-negative challenges, respectively. Luria-Bertani (LB) media (Difco Laboratories, Detroit, Mich.), prepared as per the manufacturer's specifications, was used as a bacterial growth and dilution medium for preparation of bacteria for Gram-positive and Gram-negative challenges.
(§2) Peptides: Peptides Chr-1, Chr-3, Chr-1 Truncated, and Chr-3 Truncated were obtained from Biosynthesis, Inc. (Lewisville, Tex.). Peptides were synthesized then purified by HPLC, Peptides arrived lyophilized, and were resuspended in sterile H2O. For minimum inhibitory concentration (MIC) testing, this suspension was added to media as described below. For surface challenges, this peptide mixture was added to a commercial acrylate coating resin system at 1% (w/w) solids based on the solids of the polymer.
(§3) Coating preparation: Films were prepared by combining 25 mg of the respective peptide with 4.95 g acrylate resin (Minwax® Polycrylic®, a water borne polyacrylate resin, 50% w/w solids) with agitation. The final solution was allowed to stir for an additional 30 min and films were cast by brush onto a pre-cleaned aluminum foil. The coatings were allowed to cure at ambient conditions for 24 hours prior to microbial testing. Average thickness of films was determined by a QuaNix 4500 (Automation) paint thickness gauge.
(§4) Surface testing: Bacteria were grown at 37° C. Log phase cells were harvested by centrifugation, counted on a hemocytometer using bright field microscopy, pelleted by centrifugation at 4000×g for 10 min, and resuspended in a 0.5% NaCl solution at a concentration of 1×10^7 cfu/mL. To prevent desiccation of the bacteria during testing, a hydration chamber was prepared. The chamber consisted of a sterile 3×3 in gauze pad placed in the bottom of a sterile 150×15 mm Petri dish. The gauze pad was saturated with 5 mL of sterile water and the test samples placed on top. A 10 μL aliquot containing, 1×10^5 bacteria was added to each test coating (280 mm^2), and then placed in a hydration chamber at room temperature. After 2 hr of incubation, the remaining bacteria were recovered by placing the coating in a tube containing 5 mL sterile LB media, followed by 30 sec of vortexing. Serial dilutions were carried out, and incubated for 18 hr at 37° C. with agitation. Following incubation, the cultures were examined for the presence of turbidity, indicating bacterial growth. Each coating was tested in triplicate. […] All bacterial challenge procedures were conducted using standard aseptic techniques in a BSL-2 hood.

[4] = test system: Escherichia coli (ATCC 11229); assay: Surface testing (log kill) of peptide-containing acrylic coatings, Gram-negative; type: cell-based; details: for Gram Negative Sample 1 Log Kill / Gram Negative Sample 2 Log Kill / Gram Negative Sample 3 Log Kill / Gram Negative Average Log Kill: 2 hr contact; for Gram Negative Sample 1 Log Kill / Gram Negative Sample 2 Log Kill / Gram Negative Sample 3 Log Kill: 1×10^5 bacteria; for Gram Negative Average Log Kill: average of triplicate
Description: as §1, §2, §3, §4

[5] = test system: Escherichia coli; assay: MIC testing of peptides in solution, Gram-negative; type: cell-based; details: peptide in solution, LB media, 18 hr 37° C., 1×10^5 CFU
[6] = test system: Staphylococcus aureus (ATCC 25923); assay: MIC testing of peptides in solution, Gram-positive; type: cell-based; details: peptide in solution, LB media, 18 hr 37° C., 1×10^5 CFU
Description: as §1
as §2, with “For surface challenges, this peptide mixture was added to a commercial acrylate coating resin system at 1% (w/w) solids based on the solids of the polymer.” left out
Bacterial challenge: MIC testing: To determine the minimum inhibitory concentration (MIC) of peptides, compounds were weighed and dissolved in sterile water. […] Log phase cells were harvested by centrifugation, counted on a hemocytometer using bright field microscopy, pelleted by centrifugation at 4000×g for 10 min, and resuspended in a 0.5% NaCl solution at a concentration of 1×10^7 cfu/mL. […] MIC was determined to be the lowest concentration of biocide that prevented visible bacterial growth at 18 hr.

[7] = Surface segregation of peptide, bromophenol blue staining; type: physicochemical; details: peptide in acrylic coating; for Molecules Peptide per mm^2 at surface of coating: absorbance at 600 nm
Protocol: as §3
Surface Segregation of Peptide: Each 280 mm^2 section of the test coating was submerged in 0.5% bromophenol blue for one minute. Coatings were then removed and washed three times with 20 mL di-H2O. Bromophenol blue was then recovered from the test samples using 0.05 M HCl in ethanol. Absorbance at 600 nm was determined using a Cary 5E UV-Vis-NIR (Varian, Walnut Creek, Calif.). Beer's Law was used to determine concentration of bromophenol blue and thus concentration of peptides at the surface of the coatings.
Bromophenol blue has been used extensively to quantify the amount of protein or peptide in a solution (Bonate, Anal Biochem 1988, 175, 300-4; Schosinsky et al., Clin Chem 1987, 33, 223-6). A test method to visualize surface peptide using bromophenol blue was adapted from these solution test methods. To determine the extent which peptides were segregated to the surface of test coatings, each coating was reacted with an aqueous solution containing 0.5% bromophenol blue. This solution provided molar excess of bromophenol blue that was able to undergo an acid-base reaction with the amines of the peptide at a 1:1 ratio. The reaction was then reversed, and the bromophenol blue recovered with […]. The absorbance of this solution at 600 nm was determined and Beer's Law was used to determine the concentration of bromophenol blue (FIG. 2). This could be directly converted into number of peptides at the surface and correlated directly to the effectiveness of each coating.

[8] = Surface energy and contact angle of peptide coatings (sessile drop); type: physicochemical; details: peptide in acrylic coating; for Critical Surface Energy: calculated from contact angle data; for Contact angle CH2OHCH2OH: ethylene glycol; for Contact angle CH2OHCH2OH / Contact angle CH2I2 / Contact angle H2O: 15 sec after application; for Contact angle CH2I2: methylene iodide; for Contact angle H2O: water
Protocol: Coating preparation: Films were prepared by combining 25 mg of the respective peptide with 4.95 g acrylate resin ([…]® Polycrylic®, a water borne polyacrylate resin, 50% w/w solids) with agitation. The final solution was allowed to stir for an additional 30 min and films were cast by brush onto a pre-cleaned aluminum foil. The coatings were allowed to cure at ambient conditions for 24 hours prior to microbial testing. Average thickness of films was determined by a QuaNix 4500 (Automation) paint thickness gauge. Surface Energy and Contact Angle: Surface energy and contact angle measurements were performed using a VCA 2500 video contact angle system by AST Products, Inc. Contact angle measurements using the sessile drop technique. An image was captured of the interface 15 sec after application and contact angle was measured. Due to the complex nature of coating and difficulty in ascertaining the surface segregating ability of the peptide. The surface contact angle method was used and subsequent critical surface energy calculations were based on the data obtained. In all cases the surface became more hydrophobic as indicated by the significant increase in contact angle for water. […] Upon subsequent analysis, a correlation was observed between critical surface energy and surface antimicrobial properties, especially Gram-positive, and to a much lesser extent Gram-negative.

[9] = 1% (w/w) peptide in acrylic coating

| Substance | Toxicity to eukaryotic cells [1] | Antimicrobial activity concentration [2] | Surface antimicrobial activity of coating (in words), Gram-positive [3] | Gram Positive Sample 1 Log Kill [3] | Gram Positive Sample 2 Log Kill [3] | Gram Positive Sample 3 Log Kill [3] | Gram Positive Average Log Kill [3] | Gram Negative Sample 1 Log Kill [4, 9] | Gram Negative Sample 2 Log Kill [4, 9] | Gram Negative Sample 3 Log Kill [4, 9] | Gram Negative Average Log Kill [4, 9] | MIC Gram − [5] | MIC Gram + [6] | Molecules Peptide per mm^2 at surface of coating [7] | Critical Surface Energy [8] [dynes/cm] | Contact angle CH2OHCH2OH [8] | Contact angle CH2I2 [8] | Contact angle H2O [8] | also measured |
| --- | --- | --- | --- | --- | --- | --- | --- | --- | --- | --- | --- | --- | --- | --- | --- | --- | --- | --- | --- |
| Chr-1: Full length antimicrobial peptide Chrysophsin-1 from gills of red sea bream Chrysophrys major, SEQ. ID. NO. 1 (FFWLIKGAIHAGKAIHGLIHRRRH; Chrysophrys major) | varying levels of toxicity | low micromolar | high activity | 4 | 4 | 3 | 3.6667 | 1 | 2 | 1 | 1.3333 | 0.000667 mg of peptide per mL of culture media | 0.00667 mg of peptide per mL of culture media | 6.8 × 10^13 Molecules Peptide per mm^2 | 131.6 | 60.77(±3.35) | 69.45(±4.81) | 53.05(±4.04) | Reduction of bacterial loads by coating ([3]; Gram-positive and Gram-negative together): at least 90%; Reduction of Gram-positive bacteria by peptide containing coating ([3]; after two hours): 99.9%; Surface antimicrobial activity of coating (in words), Gram-negative [4, 9]: high activity; Reduction of Gram-negative bacteria by peptide containing coating ([4]; after two hours): 90% |
| Chr-3: Full length antimicrobial peptide Chrysophsin-3 from gills of red sea bream Chrysophrys major, SEQ. ID. NO. 3 (FIGLLISAGKAIHDLIRRRH; Chrysophrys major) | varying levels of toxicity | low micromolar | moderate activity | 1 | 1 | 1 | 1 | 0 | 0 | 0 | 0 | 0.0667 mg of peptide per mL of culture media | 0.00667 mg of peptide per mL of culture media | 1.9 × 10^13 Molecules Peptide per mm^2 | 97.22 | 63.02(±3.51) | 64.57(±3.52) | 43.88(±5.01) | Peptide at surface of coating, % of total peptide [7]: (~1%) |
